Measurements from US8785452B2, “Anti-infective compounds” (priority 2008, dated 2014).
Read-outs that look alike come from different tables or passages of the source.

Tests used:
[1] = test system: M. tuberculosis H37Rv-GFP; experiment: microbe, parasite or virus in culture; assay type: cell-based, Mycobacterium tuberculosis; conditions: Mycobacterium tuberculosis, H37RV, Macrophage
[2] = test system: Raw264.7 cells; conditions: mouse, 5 days; for Primary QIM CellNb: 20 μM
[3] = test system: Raw264.7 cells; experiment: Cell number (CellNb) from image analysis of the phenotypic cell-based assay; conditions: for Primary QIM CellNb: primary screen, 20 μM
[4] = confirmation, 20 uM, read-out: QIM Confirm % Inhibition 20 uM
[5] = primary screen, 20 μM, read-out: Primary QIM % Inhibition

Row | Compound | inhibition at 20 µM [1, 4] [%] | inhibition at 20 µM [1, 5] [%] | QIM Confirm CellNb 0.2 uM [2] | QIM Confirm CellNb 2 uM [2] | QIM Confirm CellNb 20 uM ([2]; 20 uM) | Primary QIM CellNb [2] | QIM Confirm CellNb 0.2 uM ([3]; confirmation, 0.2 uM) | QIM Confirm CellNb 2 uM ([3]; confirmation) | QIM Confirm CellNb 20 uM ([3]; confirmation) | Primary QIM CellNb [3]
1 | Cc1cccc(/C=N/NC(=O)c2ccncc2)c1 [IPK 000 043 26] | 102 | 109 | 98.6 | 99.5 | 72.4 | 102.2 | 413.6 | 523.3 | 430.3 | 347.3
2 | Oc1c(Cl)cc(Cl)cc1C(=S)Nc1ccccc1 [IPK 000 042 78] | 91.7 | 73.9 |  |  |  | 33.0 |  |  |  | 194.5
3 | Nc1nonc1NC(=O)CSc1cccc2ccccc12 [IPK 000 106 30] | 67.2 | 65.7 |  |  |  | 28.5 |  |  |  | 146.5
4 | O=[N+]([O-])c1cc(Br)cc(/C=N/c2ccccc2O)c1O [IPK 000 080 69] | 16.5 | -42.5 |  |  |  | 37.6 |  |  |  | 123.5
5 | O=C(Nc1ccc(Cl)c(Cl)c1)c1ccc([N+](=O)[O-])cc1Cl [IPK 000 048 99] | 73.5 | 76.8 |  |  |  | 40.3 |  |  |  | 217.8
6 | CCOC(=O)/C=C/C(=O)Nc1sc(Cc2ccccc2)c(C)c1C(N)=O [IPK 000 110 16] | 86 | 59 |  |  |  | 6.0 |  |  |  | 179.5
7 | COc1cc(Br)cc(/C=N/NC(=O)c2ccncc2)c1O [IPK 000 079 15] | 97.9 | 82.4 |  |  |  | 90.5 |  |  |  | 383.3
8 | O=C(CS)Nc1ccccc1Cl [IPK 000 108 27] | 44.1 | 54.7 |  |  |  | 19.0 |  |  |  | 171.0
9 | O=C(Nc1cccnc1)c1ccc(COc2ccc3ccccc3c2)o1 [IPK 000 124 43] | 64.7 | 35.6 |  |  |  | 26.2 |  |  |  | 168.3
10 | CC(/C=N/NC(=O)c1ccncc1)c1ccccc1 (centres unmarked) [IPK 000 105 20] | 96.4 | 97.1 |  |  |  | 103.8 |  |  |  | 316.5
11 | CC(NC(=O)c1cccc(Cl)c1)c1ccccc1 (centres unmarked) [IPK 000 067 51] | 73.2 | 75.2 |  |  |  | 17.9 |  |  |  | 142.3
12 | O=C(COc1ccccc1-c1ccccc1)N/N=C\c1ccc([N+](=O)[O-])s1 [IPK 000 103 28] | 71.3 | 71.1 |  |  |  | 49.5 |  |  |  | 134.3
13 | Cc1ccc(NC(=O)c2ccc([N+](=O)[O-])cc2Cl)cc1Cl [IPK 000 047 16] | 85.1 | 69.4 |  |  |  | 77.9 |  |  |  | 280.5
14 | CC(/C=N/NC(=O)c1ccccn1)=C\c1ccco1 [IPK 000 110 79] | 83.4 | 72.9 |  |  |  | 22.8 |  |  |  | 462.3
15 | Cc1ccccc1NC(=O)c1c(NC(=O)c2ccccc2Cl)sc2c1CCC2 [IPK 000 073 71] | 65.2 | 87.5 | 45.3 |  |  | 29.8 |  |  |  | 218.3
16 | O=C(N/N=C/c1ccccc1[N+](=O)[O-])c1ccncc1 [IPK 000 043 35] | 101 | 104 |  |  |  | 94.4 |  |  | 461.5 | 245.5
17 | O=C(N/N=C1\C(=O)N(Cc2cccc3ccccc23)c2ccccc21)c1cc(-c2ccccc2)n[nH]1 [IPK 000 103 78] | 98 | 94.6 |  |  |  | 3.5 |  |  |  | 263.5

Row | Compound | inhibition at 20 µM [1, 4] [%] | inhibition at 20 µM [1, 5] [%] | QIM Confirm CellNb 0.2 uM [2] | QIM Confirm CellNb 2 uM [2] | QIM Confirm CellNb 20 uM ([2]; 20 uM) | Primary QIM CellNb [2] | QIM Confirm CellNb 0.2 uM ([3]; confirmation, 0.2 uM) | QIM Confirm CellNb 2 uM ([3]; confirmation) | QIM Confirm CellNb 20 uM ([3]; confirmation) | Primary QIM CellNb [3]
18 | CCOc1ccc(NC(=S)Nc2ccccc2)cc1 [IPK 000 108 78] | 68.8 | 78.8 |  |  |  | 38.3 |  |  |  | 200.3
19 | O=C(Nc1sc2c(c1C(=O)Nc1ccccc1)CCC2)c1ccccc1Cl [IPK 000 073 68] | 92.6 | 88.2 |  |  |  | 74.7 |  |  |  | 202.3
20 | Cc1nc2c(o1)NC(N)=C(C#N)C2c1c[nH]nc1C (centres unmarked) [IPK 000 065 03] | 73.2 | 68.2 |  |  |  | 1.1 |  |  |  | 197.8
21 | CCCCN(CCCC)C(=O)c1ccc(C(C)(C)C)cc1 [IPK 000 067 60] | 46.6 | 63.4 |  | 99.7 |  | 25.8 |  | 179.1 |  | 164.3
22 | O=C(Nc1sc2c(c1C(=O)Nc1ccccc1)CCC2)c1ccccc1Br [IPK 000 073 29] | 86.6 | 78.6 |  |  |  | 55.1 |  |  |  | 230.5
23 | O=[N+]([O-])c1cc2c(cc1/C=N/c1ccc(S(=O)(=O)Nc3nccs3)cc1)OCO2 [IPK 000 057 78] | 35.5 | -10.9 |  |  |  | 12.6 |  |  |  | 177.0
24 | CC(NC(=O)c1ccc(C(C)(C)C)cc1)c1ccccc1 (centres unmarked) [IPK 000 067 61] | 68.5 | 84.3 |  |  |  | 28.2 |  |  |  | 182.0
25 | NNC(=O)c1ccc(COc2cc(Cl)ccc2Cl)o1 [IPK 000 123 02] | 78.2 | 76.8 |  |  |  | 45.3 |  |  |  | 411.8
26 | Cc1ccc(NC(=O)c2ccc([N+](=O)[O-])cc2Cl)cc1C [IPK 000 047 15] | 85.8 | 69.7 |  |  |  | 61.1 |  |  |  | 281.8
27 | O=C(N/N=C/c1ccc(Cl)cc1)c1ccncc1 [IPK 000 041 53] | 97 | 100 |  |  |  | 98.1 |  |  |  | 426.8
28 | Cc1cc(/C=C(/C#N)C(=O)Nc2cccc(Br)c2)c(C)n1-c1ccc(C(=O)O)cc1 [IPK 000 113 05] | 56.4 | 55.4 |  |  |  | 31.6 |  |  |  | 162.0
29 | CCCCc1ccc(NC(=O)c2ccc([N+](=O)[O-])cc2Cl)cc1 [IPK 000 047 17] | 88.5 | 57.6 |  |  |  | 69.7 |  |  |  | 152.3
30 | CCOc1cc(/C=N/NC(=O)c2ccncc2)ccc1O [IPK 000 042 99] | 106 | 103 |  |  |  | 104.1 |  |  |  | 364.0
31 | C=C(N/N=C/c1cccc(C)n1)c1nn(Cc2ccc(Br)cc2)cc1Br [IPK 000 091 17] | 75.7 | 75.6 |  |  |  | 35.4 |  |  |  | 191.5
32 | COc1ccc(/C(C)=N/NC(N)=S)c(OC)c1 [IPK 000 080 24] | 23 | 0.2 |  |  |  | 67.6 |  |  |  | 188.8
33 | Cc1ccccc1/C=N/NC(=O)c1ccncc1 [IPK 000 043 29] | 100 | 111 |  |  |  | 105.2 |  |  |  | 415.5
34 | Oc1ccc(Br)cc1/C=N/c1ccccc1O [IPK 000 043 83] | 31.3 | -80.9 |  |  |  | 17.1 |  |  |  | 89.0
